Measurements: ChEMBL document CHEMBL5120807, “Recent advances in the development of active hybrid molecules in the treatment of cardiovascular diseases” (Bioorg Med Chem, 2022)

Assays:
[1] = biological target: Cholinesterase (Homo sapiens) (UniProt P06276); assay: Inhibition of BuChE (unknown origin) by Ellman method; settings: concentration not given here
[2] = Antagonist activity at beta1-adrenoceptor (unknown origin) at 1 uM; design: species or system Homo sapiens
[3] = biological target: Dual specificity protein kinase CLK1 (Mus musculus, UniProt P22518); assay: Inhibition of mouse recombinant CLK1 expressed in bacterial system using GRSRSRSRSRSR as substrate incubated for 30 mins by ADP-Glo assay kit method
[4] = biological target: Serine/threonine-protein kinase pim-1 (Homo sapiens, UniProt P11309); assay: Inhibition of human PIM1 expressed in bacterial system using histone H1 as substrate incubated for 30 mins by ADP-Glo assay kit method
[5] = Antioxidant activity assessed as ABTS radical scavenging activity; assay type: functional

Chain of Dual specificity protein kinase CLK1 (P22518 whole entry): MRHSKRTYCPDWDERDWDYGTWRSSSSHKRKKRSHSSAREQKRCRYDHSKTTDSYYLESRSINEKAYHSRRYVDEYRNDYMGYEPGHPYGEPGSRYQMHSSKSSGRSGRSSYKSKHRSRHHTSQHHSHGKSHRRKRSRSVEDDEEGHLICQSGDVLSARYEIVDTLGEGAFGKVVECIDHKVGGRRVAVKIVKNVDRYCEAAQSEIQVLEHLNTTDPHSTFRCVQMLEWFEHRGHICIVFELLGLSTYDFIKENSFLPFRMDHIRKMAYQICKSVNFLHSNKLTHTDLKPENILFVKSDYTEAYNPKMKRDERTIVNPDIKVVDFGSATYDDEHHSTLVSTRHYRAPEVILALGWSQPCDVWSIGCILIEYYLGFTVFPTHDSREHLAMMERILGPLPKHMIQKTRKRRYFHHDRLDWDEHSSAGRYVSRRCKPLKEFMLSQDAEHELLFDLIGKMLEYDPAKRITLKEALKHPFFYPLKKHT
Chain of Serine/threonine-protein kinase pim-1 (P11309 whole entry): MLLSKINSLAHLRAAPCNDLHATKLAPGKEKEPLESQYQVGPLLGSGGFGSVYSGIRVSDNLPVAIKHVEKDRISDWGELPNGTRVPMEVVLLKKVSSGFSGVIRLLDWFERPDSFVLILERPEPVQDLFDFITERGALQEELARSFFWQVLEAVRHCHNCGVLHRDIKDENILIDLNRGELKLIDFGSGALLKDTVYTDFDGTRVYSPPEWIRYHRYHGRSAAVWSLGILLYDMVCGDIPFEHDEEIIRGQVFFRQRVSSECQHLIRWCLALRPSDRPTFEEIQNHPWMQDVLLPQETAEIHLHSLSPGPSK
Chain of Cholinesterase (Homo sapiens) (P06276 whole entry): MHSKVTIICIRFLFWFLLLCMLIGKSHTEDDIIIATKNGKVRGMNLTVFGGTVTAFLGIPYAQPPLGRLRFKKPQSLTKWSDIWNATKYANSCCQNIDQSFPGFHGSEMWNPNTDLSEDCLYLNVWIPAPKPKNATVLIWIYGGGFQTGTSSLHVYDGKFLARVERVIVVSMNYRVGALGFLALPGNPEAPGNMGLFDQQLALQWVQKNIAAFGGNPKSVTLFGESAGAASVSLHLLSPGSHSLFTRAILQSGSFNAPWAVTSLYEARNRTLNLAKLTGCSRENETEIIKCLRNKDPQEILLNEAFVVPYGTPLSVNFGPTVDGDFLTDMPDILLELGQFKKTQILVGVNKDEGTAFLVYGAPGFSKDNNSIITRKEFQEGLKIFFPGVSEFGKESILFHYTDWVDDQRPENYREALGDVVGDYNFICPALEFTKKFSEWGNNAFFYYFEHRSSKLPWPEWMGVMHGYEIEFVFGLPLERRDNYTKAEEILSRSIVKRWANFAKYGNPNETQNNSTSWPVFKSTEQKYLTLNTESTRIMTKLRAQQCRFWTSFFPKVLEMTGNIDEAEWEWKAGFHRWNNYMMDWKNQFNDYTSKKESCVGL

Compound	IC50 [3] [nM]	IC50 [4] [nM]	other results
COc1cc(/C=C/C(=O)OCCOCCNC(=O)/C=C/c2ccc(OC(C)=O)c(OC(C)=O)c2)ccc1OC(C)=O			inhibition [1]: 95%
COc1cc2c(cc1OC)CC(=O)N(CCCN(C)C[C@@H](O)COc1ccccc1C)CC2			IC50 [2]: 10400 nM
CN1C(=O)/C(=C2/SC(=S)N(N)C2=O)c2cc(Br)ccc21	> 10000	770	
NN1C(=O)/C(=C2\C(=O)Nc3ccc(Br)cc32)SC1=S	4670	1800	
CCCCCCCCCCCCCCCCOC(=O)C1=C(C)NC(C)=C(C(=O)OCCCCCCCCCCCCCCCC)C1c1ccccc1[N+](=O)[O-]			IC50 [5]: 2450 nM
